Reference: patent publication US20070009617A1, “Method for preventing fungal growth in plants” (priority 2003, published 2007)

Experiments:
Assay in all cases: mycelial growth from inoculum plugs in amended basal nutrient solution
Rhizoctonia solani = assay type: cell-based; conditions: fungicide control
Protocol: (§1) The efficacy of the garlic extract was tested against nine (9) soil-borne fungi that cause root and lower stem rots of plants. The fungal pathogens included: Pythium aphanidermatum, Pythium irregular, Pythium ultimum, Phytophthora capsici, Phytophthora cinnamomi, Phytophthora nicotiana, Rhizoctonia solani, Fusarium oxysporum fsp. lycopersici, Fusarium oxysporum f.sp. spinaciae, and Thielaviopsis basicola. All isolates used in this investigation were known to be pathogenic to various cultivated plant species.
(§2) All isolates of Pythium aphanidermatum, Pythium irregular, Pythum ultimum, Phytophthora capsici, Phytophthora cinnamomi, Phytophthora nicotiana, Rhizoctonia solani, Fusarium oxysporum f.sp. lycopersici, Fusarium oxysporum f.sp. spinaciae were grown on standard corn meal agar (CMA) for 8 to 9 days. Plugs from inoculum plates were taken using a #4 cork borer (5 mm diameter). Inoculum plugs were placed into 5-cm sterile plastic petri dishes containing 10 ml of a basal nutrient solution that consisted of 60% (v/v) clarified V-8 juice and sterile distilled water (SDW). Basal nutrient solutions were amended with the appropriate treatments. […] Cultures were placed into a growth chamber and maintained in the dark at 22(C(1(C. After 48 hours, mycelial growth (if any was visible) from culture plugs was measured.

[1] = system: Pythium aphanidermatum, Pythium irregular, Pythium ultimum; assay type: cell-based, Pythium species; conditions: basal nutrient solution amended with fungicide control; 48 hours
Protocol: as §1, §2

[2] = system: Phytophthora capsici, Phytophthora cinnamomi, Phytophthora nicotiana; assay type: cell-based, Phytophthora species; conditions: basal nutrient solution amended with fungicide control; 48 hours
Protocol: as §1, §2

| SMILES | growth on amended basal nutrient solution (Rhizoctonia solani; first replication (inappropriate concentration)) | growth on amended basal nutrient solution (Rhizoctonia solani; second replication) | growth from the inoculum plugs [1] | growth from the inoculum plugs [2] |
| --- | --- | --- | --- | --- |
| O=[N+]([O-])c1c(Cl)c(Cl)c(Cl)c(Cl)c1Cl [PCNB] | limited amount of growth | did not grow | – | – |
| COCC(=O)N(c1c(C)cccc1C)C(C)C(=O)OC (stereo not shown) [metalaxyl] | – | – | none | none |
